In US20260364089A1, “PYRIDOPYRIMIDINE KRAS INHIBITORS” (Treeline Biosciences, Inc., priority 2022, published 2026):
Read-outs that look alike come from different tables or passages of the source.

Target: T1, KRas G12V (Homo sapiens, UniProt P01116, G12V)
T1 construct: Biotinylated KRas G12V (aa 1-169) loaded with GDP nucleotide; biotin (biotinylated)
Assay: SOS1-Catalyzed Nucleotide Exchange Assay, KRas G12V (Method 2)
Format: biochemical
Conditions: 5 nM KRas G12V (aa 1-169, GDP-loaded), 50 nM SOS1
Description: KRas G12V [Method 2]: Compounds were pre-dispensed via Echo liquid handling (acoustic, touch-free) to generate assay ready plates (ARP). More precisely, a 10-point concentration response curve for each compound was prepared with appropriate top concentration (1 μM, 10 μM, 100 μM). Biotinylated KRas G12V (aa 1-169) loaded with GDP nucleotide and Streptavidin-Europium (SA-EU, Columbia Biosciences) were preincubated in assay buffer (20 mM HEPES pH 7.4, 150 mM NaCl, 5 mM MgCl2, 1 mM DTT, 0.01% Brij-35, 0.3 mg/mL BSA) on ice for 30 min. Separately SOS1 (aa 546-1049) and EDA-GTP-DY647P1 (Jena Bioscience) were preincubated in assay buffer on ice for 30 min. After 30 minutes of incubation for the assay components, 5 μL buffer and 5 μL of KRas G12V-SA-Eu were added to each well of the ARP. After a further 30 min, 5 μL of SOS1-EDA-GTP-D467P1 was added to start the nucleotide exchange reaction. Final concentration in the assay were 5 nM KRas G12V, 50 nM SOS1 (aa 564-1049). The reaction was allowed to proceed for 60-90 minutes after which the plate was read on a plate reader. After normalization of the raw data, the data was fit to a four-parameter logistic curve.

[1] = Method 2, B, read-out: KRas G12V IC50 (nM) (Method 2, B)
[2] = Method 2, A, read-out: KRas G12V IC50 (nM) (Method 2, A)

T1 sequence (P01116 1-169 G12V): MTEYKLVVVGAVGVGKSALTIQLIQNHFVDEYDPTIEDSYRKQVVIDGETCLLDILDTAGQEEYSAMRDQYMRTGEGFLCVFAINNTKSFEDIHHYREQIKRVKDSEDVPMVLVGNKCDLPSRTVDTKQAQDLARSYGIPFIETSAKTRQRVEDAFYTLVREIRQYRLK

SMILES	IC50 [1] [nM]	IC50 [2] [nM]
Nc1cc2c(c(Cl)c1F)CCCCC(=O)NCCC1(O)CCCN(C1)c1nc(OC[C@@]34CCCN3C[C@H](F)C4)nc3c(F)c-2c(F)cc13 (stereo partly drawn) [Compound 183a, 3^5-amino-3^3-chloro-2^6,2^8,3^4-trifluoro-2^2-(((2R,7aS)-2-fluorotetrahydro-1H-pyrrolizin-7a(5H)-yl)methoxy)-1^3-hydroxy-9-aza-2(4,7)-quinazolina-1(1,3)-piperidina-3(1,2)-benzenacycloundecaphan-8-one]	100 to 1000	–
Nc1cc2c(c(Cl)c1F)CCCCC(=O)NCC1COCCN(C1)c1nc(OC[C@@]34CCCN3C[C@H](F)C4)nc3c(F)c-2c(F)cc13 (stereo partly drawn) [Compound 184a, 3^5-amino-3^3-chloro-2^6,2^8,3^4-trifluoro-2^2-(((2R,7aS)-2-fluorotetrahydro-1H-pyrrolizin-7a(5H)-yl)methoxy)-9-aza-1(4,6)-oxazepana-2(4,7)-quinazolina-3(1,2)-benzenacyclodecaphan-8-one]	100 to 1000	–
Nc1cc2c(c(Cl)c1F)CCCCC(=O)NCCC1COCCN(C1)c1nc(OC[C@@]34CCCN3C[C@H](F)C4)nc3c(F)c-2ncc13 (stereo partly drawn) [Compound 185a, 3^5-amino-3^3-chloro-2^8,3^4-difluoro-2^2-(((2R,7aS)-2-fluorotetrahydro-1H-pyrrolizin-7a(5H)-yl)methoxy)-9-aza-1(4,6)-oxazepana-2(4,7)-pyrido[4,3-d]pyrimidina-3(1,2)-benzenacycloundecaphan-8-one]	100 to 1000	–
Nc1cc2c(c(Cl)n1)CCCCC(=O)NCCC1CCCN(C1)c1nc(OC[C@@]34CCCN3C[C@H](F)C4)nc3c(F)c-2ncc13 (stereo partly drawn) [Compound 186a, 1^6-amino-1^2-chloro-2^8-fluoro-2^2-(((2R,7aS)-2-fluorotetrahydro-1H-pyrrolizin-7a(5H)-yl)methoxy)-6-aza-2(7,4)-pyrido[4,3-d]pyrimidina-1(4,3)-pyridina-3(1,3)-piperidinacycloundecaphan-7-one]	100 to 1000	–
Nc1cc2c(c(Cl)n1)CCCCC(=O)NCCC1(O)CCCN(C1)c1nc(OC[C@@]34CCCN3C[C@H](F)C4)nc3c(F)c-2ccc13 (stereo partly drawn) [Compound 187a, 1^6-amino-1^2-chloro-2^8-fluoro-2^2-(((2R,7aS)-2-fluorotetrahydro-1H-pyrrolizin-7a(5H)-yl)methoxy)-3^3-hydroxy-6-aza-2(7,4)-quinazolina-1(4,3)-pyridina-3(1,3)-piperidinacycloundecaphan-7-one]	1000 to 10000	–
Nc1cc2c3c(c(F)ccc3c1)CCCC(=O)NCCC1CCCN(C1)c1nc(OC[C@@]34CCCN3C[C@H](F)C4)nc3c(F)c-2ncc13 (stereo partly drawn) [Compound 189a, 3^3-amino-2^8,3^7-difluoro-2^2-(((2R,7aS)-2-fluorotetrahydro-1H-pyrrolizin-7a(5H)-yl)methoxy)-8-aza-2(4,7)-pyrido[4,3-d]pyrimidina-1(1,3)-piperidina-3(1,8)-naphthalenacyclodecaphan-7-one]	100 to 1000	100 to 1000
Nc1cc2c3c(c(F)ccc3c1)CCCC(=O)NCCC1CCCN(C1)c1nc(OC[C@@]34CCCN3C[C@H](F)C4)nc3c(F)c-2ccc13 (stereo partly drawn) [Compound 190a, 3^3-amino-2^8,3^7-difluoro-2^2-(((2R,7aS)-2-fluorotetrahydro-1H-pyrrolizin-7a(5H)-yl)methoxy)-8-aza-2(4,7)-quinazolina-1(1,3)-piperidina-3(1,8)-naphthalenacyclodecaphan-7-one]	100 to 1000	100 to 1000
O=C1CCCc2c(F)ccc3cccc(c23)-c2ccc3c(nc(OC[C@@]45CCCN4C[C@H](F)C5)nc3c2F)N2CCCC(CCN1)C2 (stereo partly drawn) [Compound 191a, 2^8,3^7-difluoro-2^2-(((2R,7aS)-2-fluorotetrahydro-1H-pyrrolizin-7a(5H)-yl)methoxy)-8-aza-2(4,7)-quinazolina-1(1,3)-piperidina-3(1,8)-naphthalenacyclodecaphan-7-one]	≤ 100	100 to 1000
Nc1cc2c3c(c(F)ccc3c1)CCCC(=O)NCC1COCCN(C1)c1nc(OC[C@@]34CCCN3C[C@H](F)C4)nc3c(F)c-2ncc13 (stereo partly drawn) [Compound 192a, 3^3-amino-2^8,3^7-difluoro-2^2-(((2R,7aS)-2-fluorotetrahydro-1H-pyrrolizin-7a(5H)-yl)methoxy)-8-aza-1(4,6)-oxazepana-2(4,7)-pyrido[4,3-d]pyrimidina-3(1,8)-naphthalenacyclononaphan-7-one]	100 to 1000	100 to 1000
O=C1CCCc2c(F)ccc3cccc(c23)-c2ncc3c(nc(OC[C@@]45CCCN4C[C@H](F)C5)nc3c2F)N2CCOCC(CN1)C2 (stereo partly drawn) [Compound 193a, 2^8,3^7-difluoro-2^2-(((2R,7aS)-2-fluorotetrahydro-1H-pyrrolizin-7a(5H)-yl)methoxy)-8-aza-1(4,6)-oxazepana-2(4,7)-pyrido[4,3-d]pyrimidina-3(1,8)-naphthalenacyclononaphan-7-one]	100 to 1000	100 to 1000

Now from value to molecule:

IC50 [1] [nM]	IC50 [2] [nM]	SMILES
≤ 100	≤ 100	O=C1CCCc2c(F)ccc3cc(O)cc(c23)-c2ncc3c(nc(OC[C@@]45CCCN4C[C@H](F)C5)nc3c2F)N2CCOCC(CCN1)C2 (stereo partly drawn) [Compound 194a, 2^8,3^7-difluoro-2^2-(((2R,7aS)-2-fluorotetrahydro-1H-pyrrolizin-7a(5H)-yl)methoxy)-3^3-hydroxy-8-aza-1(4,6)-oxazepana-2(4,7)-pyrido[4,3-d]pyrimidina-3(1,8)-naphthalenacyclodecaphan-7-one]
≤ 100	≤ 100	O=C1CCCc2c(F)ccc3cc(O)cc(c23)-c2ccc3c(nc(OC[C@@]45CCCN4C[C@H](F)C5)nc3c2F)N2CCOCC(CCN1)C2 (stereo partly drawn) [Compound 195a, 2^8,3^7-difluoro-2^2-(((2R,7aS)-2-fluorotetrahydro-1H-pyrrolizin-7a(5H)-yl)methoxy)-3^3-hydroxy-8-aza-1(4,6)-oxazepana-2(4,7)-quinazolina-3(1,8)-naphthalenacyclodecaphan-7-one]
≤ 100	–	O=C1CCCCc2c(Cl)cc3[nH]ncc3c2-c2ncc3c(nc(OC[C@@]45CCCN4C[C@H](F)C5)nc3c2F)N2CCCC(CCN1)C2 (stereo partly drawn) [Compound 196a, 1^6-chloro-2^8-fluoro-2^2-(((2R,7aS)-2-fluorotetrahydro-1H-pyrrolizin-7a(5H)-yl)methoxy)-1^1H-6-aza-2(7,4)-pyrido[4,3-d]pyrimidina-1(4,5)-indazola-3(1,3)-piperidinacycloundecaphan-7-one]
≤ 100	–	O=C1CCCCc2c(Cl)cc3[nH]ncc3c2-c2ccc3c(nc(OC[C@@]45CCCN4C[C@H](F)C5)nc3c2F)N2CCOCC(CN1)C2 (stereo partly drawn) [Compound 198a, 3^6-chloro-2^8-fluoro-2^2-(((2R,7aS)-2-fluorotetrahydro-1H-pyrrolizin-7a(5H)-yl)methoxy)-3^1H-9-aza-1(4,6)-oxazepana-2(4,7)-quinazolina-3(4,5)-indazolacyclodecaphan-8-one]
≤ 100	–	O=C1CCCCc2c(Cl)cc3[nH]ncc3c2-c2ccc3c(nc(OC[C@@]45CCCN4C[C@H](F)C5)nc3c2F)N2CCCC(O)(CCN1)C2 (stereo partly drawn) [Compound 199a, 1^6-chloro-2^8-fluoro-2^2-(((2R,7aS)-2-fluorotetrahydro-1H-pyrrolizin-7a(5H)-yl)methoxy)-3^3-hydroxy-1^1H-6-aza-2(7,4)-quinazolina-1(4,5)-indazola-3(1,3)-piperidinacycloundecaphan-7-one]
≤ 100	–	O=C1CCCCc2c(Cl)cc3[nH]ncc3c2-c2c(F)cc3c(nc(OC[C@@]45CCCN4C[C@H](F)C5)nc3c2F)N2CCOCC(CN1)C2 (stereo partly drawn) [Compound 200a, 3^6-chloro-2^6,2^8-difluoro-2^2-(((2R,7aS)-2-fluorotetrahydro-1H-pyrrolizin-7a(5H)-yl)methoxy)-3^1H-9-aza-1(4,6)-oxazepana-2(4,7)-quinazolina-3(4,5)-indazolacyclodecaphan-8-one]
100 to 1000	–	Nc1cc(Cl)c2c(c1)-c1ncc3c(nc(OC[C@@]45CCCN4C[C@H](F)C5)nc3c1F)N1C[C@H](F)C[C@H](C1)NC(=O)CCCC2 [Compound 201a, (1^3R,1^5R)-3^5-amino-3^3-chloro-1^5,2^8-difluoro-2^2-(((2R,7aS)-2-fluorotetrahydro-1H-pyrrolizin-7a(5H)-yl)methoxy)-9-aza-2(4,7)-pyrido[4,3-d]pyrimidina-1(1,3)-piperidina-3(1,2)-benzenacyclononaphan-8-one]
≤ 100	–	O=C1CCCCc2c(Cl)cc3[nH]ncc3c2-c2ncc3c(nc(OC[C@@]45CCCN4C[C@H](F)C5)nc3c2F)N2CCOCC(CN1)C2 (stereo partly drawn) [Compound 203a, 3^6-chloro-2^8-fluoro-2^2-(((2R,7aS)-2-fluorotetrahydro-1H-pyrrolizin-7a(5H)-yl)methoxy)-3^1H-9-aza-1(4,6)-oxazepana-2(4,7)-pyrido[4,3-d]pyrimidina-3(4,5)-indazolacyclodecaphan-8-one]
